Source: the kinase profiling compilation of Christmann-Franck et al. (2016)

Assays:
Assay in all cases: KINOMEscan competition binding
Conditions in all cases: compound 10.0 µM
PIK3CA (human) = PIK3CA (human) (UniProt P42336)
ACVRL1 (human) = ACVRL1 (human) (UniProt P37023)
EPHB4 (human) = EPHB4 (human) (UniProt P54760)
MAP3K12 (human) = MAP3K12 (human) (UniProt Q12852)
PIK3CB (human) = PIK3CB (human) (UniProt P42338)
EPHA6 (human) = EPHA6 (human) (UniProt Q9UF33)
[1] = system: LRRK2 (human), Q5S007 [G2019S]
ULK3 (human) = ULK3 (human) (UniProt Q6PHR2)
HIPK2 (human) = HIPK2 (human) (UniProt Q9H2X6)
EPHB2 (human) = EPHB2 (human) (UniProt P29323)
SIK2 (human) = SIK2 (human) (UniProt Q9H0K1)
TLK2 (human) = TLK2 (human) (UniProt Q86UE8)
TLK1 (human) = TLK1 (human) (UniProt Q9UKI8)
MAP3K1 (human) = MAP3K1 (human) (UniProt Q13233)
TRPM6 (human) = TRPM6 (human) (UniProt Q9BX84)
PIK3C2G (human) = PIK3C2G (human) (UniProt O75747)
CDC42BPB (human) = CDC42BPB (human) (UniProt Q9Y5S2)
RPS6KB1 (human) = RPS6KB1 (human) (UniProt P23443)
PKN1 (human) = PKN1 (human) (UniProt Q16512)
MAP3K10 (human) = MAP3K10 (human) (UniProt Q02779)
PAK6 (human) = PAK6 (human) (UniProt Q9NQU5)
STK32B (human) = STK32B (human) (UniProt Q9NY57)
LRRK2 (human) = LRRK2 (human) (UniProt Q5S007)
[2] = system: PIK3CA (human), P42336 [E542K]
MAP3K2 (human) = MAP3K2 (human) (UniProt Q9Y2U5)
STK4 (human) = STK4 (human) (UniProt Q13043)
DYRK2 (human) = DYRK2 (human) (UniProt Q92630)
PIM1 (human) = PIM1 (human) (UniProt P11309)
STK11 (human) = STK11 (human) (UniProt Q15831)
PKN3 (M.tuberculosis) = PKN3 (M.tuberculosis) (UniProt Q6P5Z2)
DCLK3 (human) = DCLK3 (human) (UniProt Q9C098)
CRK2 (P.falciparum) = CRK2 (P.falciparum) (UniProt P61075)
EPHA3 (human) = EPHA3 (human) (UniProt P29320)
TYRO3 (human) = TYRO3 (human) (UniProt Q06418)
GRK1 (human) = GRK1 (human) (UniProt Q15835)
ABL2 (human) = ABL2 (human) (UniProt P42684)
RPS6KA1 KD2 (human) = RPS6KA1 KD2 (human) (UniProt Q15418)
EPHA7 (human) = EPHA7 (human) (UniProt Q15375)
DSTYK (human) = DSTYK (human) (UniProt Q6XUX3)
AKT3 (human) = AKT3 (human) (UniProt Q9Y243)

Sequence of PIK3C2G (human) (O75747 whole entry, looked up): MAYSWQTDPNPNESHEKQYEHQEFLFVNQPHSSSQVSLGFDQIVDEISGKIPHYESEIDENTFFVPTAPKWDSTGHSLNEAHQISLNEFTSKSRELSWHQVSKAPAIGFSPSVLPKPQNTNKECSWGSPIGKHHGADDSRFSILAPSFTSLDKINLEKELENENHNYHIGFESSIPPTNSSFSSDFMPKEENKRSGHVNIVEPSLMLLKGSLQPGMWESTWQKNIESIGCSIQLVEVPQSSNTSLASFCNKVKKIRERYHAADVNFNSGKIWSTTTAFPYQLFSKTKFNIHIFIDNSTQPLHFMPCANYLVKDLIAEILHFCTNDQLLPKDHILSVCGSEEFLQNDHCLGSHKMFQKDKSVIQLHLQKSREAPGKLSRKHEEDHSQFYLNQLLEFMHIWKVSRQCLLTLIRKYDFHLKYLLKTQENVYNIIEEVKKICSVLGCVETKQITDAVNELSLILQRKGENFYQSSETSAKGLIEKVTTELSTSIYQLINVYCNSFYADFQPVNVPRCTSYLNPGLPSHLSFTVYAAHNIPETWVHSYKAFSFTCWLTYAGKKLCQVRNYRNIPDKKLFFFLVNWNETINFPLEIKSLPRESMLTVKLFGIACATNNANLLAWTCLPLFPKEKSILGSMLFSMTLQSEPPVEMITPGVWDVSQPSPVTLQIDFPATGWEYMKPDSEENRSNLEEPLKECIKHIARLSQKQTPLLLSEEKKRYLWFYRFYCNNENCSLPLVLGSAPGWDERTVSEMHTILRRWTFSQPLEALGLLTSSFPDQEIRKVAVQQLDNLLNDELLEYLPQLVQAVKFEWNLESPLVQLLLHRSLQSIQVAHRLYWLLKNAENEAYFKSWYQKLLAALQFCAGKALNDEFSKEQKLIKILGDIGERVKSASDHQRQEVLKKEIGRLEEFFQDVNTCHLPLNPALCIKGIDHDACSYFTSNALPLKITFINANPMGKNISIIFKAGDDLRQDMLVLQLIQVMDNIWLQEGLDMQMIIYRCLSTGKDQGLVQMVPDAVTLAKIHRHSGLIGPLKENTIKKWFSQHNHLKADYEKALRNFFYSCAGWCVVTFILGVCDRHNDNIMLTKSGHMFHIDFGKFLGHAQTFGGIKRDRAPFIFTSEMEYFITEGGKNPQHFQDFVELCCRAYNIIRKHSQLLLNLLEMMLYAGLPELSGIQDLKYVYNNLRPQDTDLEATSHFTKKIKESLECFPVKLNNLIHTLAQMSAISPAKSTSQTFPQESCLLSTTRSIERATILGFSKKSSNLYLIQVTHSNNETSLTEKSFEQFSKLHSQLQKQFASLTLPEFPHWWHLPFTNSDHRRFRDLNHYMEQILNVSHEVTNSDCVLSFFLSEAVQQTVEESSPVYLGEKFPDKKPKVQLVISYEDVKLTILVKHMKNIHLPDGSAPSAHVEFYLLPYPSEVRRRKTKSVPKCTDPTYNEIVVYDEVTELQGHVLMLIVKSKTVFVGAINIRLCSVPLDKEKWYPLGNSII
Sequence of PKN3 (M.tuberculosis) (Q6P5Z2 whole entry, looked up): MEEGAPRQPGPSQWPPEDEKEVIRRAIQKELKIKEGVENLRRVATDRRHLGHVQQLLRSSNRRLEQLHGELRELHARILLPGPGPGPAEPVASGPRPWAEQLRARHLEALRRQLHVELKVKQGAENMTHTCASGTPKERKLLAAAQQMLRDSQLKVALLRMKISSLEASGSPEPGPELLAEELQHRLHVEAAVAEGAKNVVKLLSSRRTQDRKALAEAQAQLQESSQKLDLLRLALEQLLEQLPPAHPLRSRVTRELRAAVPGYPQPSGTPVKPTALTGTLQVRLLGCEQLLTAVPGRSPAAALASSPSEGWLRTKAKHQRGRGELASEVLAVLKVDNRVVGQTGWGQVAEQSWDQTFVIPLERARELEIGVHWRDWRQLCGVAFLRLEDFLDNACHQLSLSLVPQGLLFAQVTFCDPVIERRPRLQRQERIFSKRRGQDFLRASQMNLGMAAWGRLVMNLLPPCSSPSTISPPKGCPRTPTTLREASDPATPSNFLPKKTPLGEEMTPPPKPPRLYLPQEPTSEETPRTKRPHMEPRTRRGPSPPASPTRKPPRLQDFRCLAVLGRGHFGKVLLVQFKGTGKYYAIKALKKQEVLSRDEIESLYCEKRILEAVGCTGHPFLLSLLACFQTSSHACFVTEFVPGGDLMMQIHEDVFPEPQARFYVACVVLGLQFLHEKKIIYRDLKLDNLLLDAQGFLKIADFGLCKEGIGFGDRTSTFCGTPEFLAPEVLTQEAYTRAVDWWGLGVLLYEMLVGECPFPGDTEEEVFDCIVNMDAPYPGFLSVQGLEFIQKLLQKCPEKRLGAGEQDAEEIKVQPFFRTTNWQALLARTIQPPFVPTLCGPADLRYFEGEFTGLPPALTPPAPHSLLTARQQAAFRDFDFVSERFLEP
Sequence of LRRK2 (human), Q5S007 [G2019S] (Q5S007 whole entry G2019S, looked up): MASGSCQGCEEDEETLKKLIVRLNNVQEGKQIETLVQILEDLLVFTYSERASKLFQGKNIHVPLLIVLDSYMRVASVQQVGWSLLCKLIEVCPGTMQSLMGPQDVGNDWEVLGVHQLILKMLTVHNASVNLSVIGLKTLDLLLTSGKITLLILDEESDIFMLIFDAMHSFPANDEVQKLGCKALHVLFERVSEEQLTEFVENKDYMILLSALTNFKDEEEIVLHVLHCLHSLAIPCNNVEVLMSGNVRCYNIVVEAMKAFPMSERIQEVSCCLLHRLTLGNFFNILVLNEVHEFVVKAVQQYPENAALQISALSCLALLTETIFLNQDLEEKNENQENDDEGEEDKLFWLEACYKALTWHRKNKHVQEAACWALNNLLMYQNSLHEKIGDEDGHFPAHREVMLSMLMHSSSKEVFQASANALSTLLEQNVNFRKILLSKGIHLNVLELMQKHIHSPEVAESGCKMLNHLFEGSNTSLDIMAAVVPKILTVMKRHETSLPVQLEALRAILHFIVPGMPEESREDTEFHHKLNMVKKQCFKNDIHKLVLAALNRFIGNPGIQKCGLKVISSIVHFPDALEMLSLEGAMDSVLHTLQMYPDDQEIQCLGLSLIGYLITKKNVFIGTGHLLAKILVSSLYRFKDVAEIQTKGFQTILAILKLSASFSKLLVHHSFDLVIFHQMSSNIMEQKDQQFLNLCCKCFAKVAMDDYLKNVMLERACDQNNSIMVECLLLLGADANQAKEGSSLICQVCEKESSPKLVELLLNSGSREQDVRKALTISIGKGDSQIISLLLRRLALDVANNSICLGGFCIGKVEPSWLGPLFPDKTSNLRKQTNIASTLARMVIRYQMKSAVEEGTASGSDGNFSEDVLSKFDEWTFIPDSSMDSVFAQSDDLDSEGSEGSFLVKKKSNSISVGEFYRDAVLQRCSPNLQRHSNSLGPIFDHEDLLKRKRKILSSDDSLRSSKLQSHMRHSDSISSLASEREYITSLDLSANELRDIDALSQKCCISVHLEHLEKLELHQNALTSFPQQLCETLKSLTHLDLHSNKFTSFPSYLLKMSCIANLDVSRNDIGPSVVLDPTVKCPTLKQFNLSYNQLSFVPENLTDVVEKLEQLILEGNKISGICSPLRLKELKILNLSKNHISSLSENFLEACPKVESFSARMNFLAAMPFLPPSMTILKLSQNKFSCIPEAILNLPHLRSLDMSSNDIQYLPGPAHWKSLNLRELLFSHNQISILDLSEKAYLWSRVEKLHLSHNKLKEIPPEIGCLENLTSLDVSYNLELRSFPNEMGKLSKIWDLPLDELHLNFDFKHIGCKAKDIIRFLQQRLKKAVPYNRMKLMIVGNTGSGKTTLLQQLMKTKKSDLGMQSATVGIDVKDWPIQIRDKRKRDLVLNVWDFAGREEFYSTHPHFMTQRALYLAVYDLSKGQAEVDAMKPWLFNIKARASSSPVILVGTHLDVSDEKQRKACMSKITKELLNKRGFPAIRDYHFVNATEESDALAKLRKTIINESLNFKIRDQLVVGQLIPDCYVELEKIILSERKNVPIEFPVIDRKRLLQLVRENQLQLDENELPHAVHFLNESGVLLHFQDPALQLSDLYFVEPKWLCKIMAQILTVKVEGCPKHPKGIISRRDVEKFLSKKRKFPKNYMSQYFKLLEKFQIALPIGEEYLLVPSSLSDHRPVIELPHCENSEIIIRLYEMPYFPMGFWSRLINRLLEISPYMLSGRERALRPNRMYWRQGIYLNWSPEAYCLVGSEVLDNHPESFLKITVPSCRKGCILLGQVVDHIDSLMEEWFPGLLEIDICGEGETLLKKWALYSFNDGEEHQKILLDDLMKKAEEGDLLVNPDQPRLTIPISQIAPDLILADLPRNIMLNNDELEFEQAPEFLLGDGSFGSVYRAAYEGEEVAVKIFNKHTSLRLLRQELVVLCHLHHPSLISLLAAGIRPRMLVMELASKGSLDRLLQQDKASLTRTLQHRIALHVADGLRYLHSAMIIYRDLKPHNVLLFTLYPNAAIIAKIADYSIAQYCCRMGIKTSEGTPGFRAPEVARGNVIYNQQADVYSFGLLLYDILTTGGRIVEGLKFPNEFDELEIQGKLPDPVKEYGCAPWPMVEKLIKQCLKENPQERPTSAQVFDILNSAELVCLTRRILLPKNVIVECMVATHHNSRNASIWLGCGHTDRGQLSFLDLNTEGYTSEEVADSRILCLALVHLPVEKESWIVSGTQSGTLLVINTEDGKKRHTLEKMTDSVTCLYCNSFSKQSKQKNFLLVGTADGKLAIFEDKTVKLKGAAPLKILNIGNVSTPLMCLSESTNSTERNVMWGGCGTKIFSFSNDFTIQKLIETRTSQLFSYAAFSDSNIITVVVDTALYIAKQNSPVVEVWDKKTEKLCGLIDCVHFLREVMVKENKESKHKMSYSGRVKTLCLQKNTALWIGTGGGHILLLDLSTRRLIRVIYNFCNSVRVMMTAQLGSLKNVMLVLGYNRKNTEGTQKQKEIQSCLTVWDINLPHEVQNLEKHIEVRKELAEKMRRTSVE
Sequence of LRRK2 (human) (Q5S007 whole entry, looked up): as the sequence (Q5S007 whole entry G2019S, looked up) above, with S2019G counted along it

Structure (SMILES) | kinase still bound, per cent of control (PIK3CA (human)) | kinase still bound, per cent of control (ACVRL1 (human)) | kinase still bound, per cent of control (EPHB4 (human)) | kinase still bound, per cent of control (MAP3K12 (human)) | kinase still bound, per cent of control (PIK3CB (human)) | kinase still bound, per cent of control (EPHA6 (human)) | kinase still bound, per cent of control [1] | kinase still bound, per cent of control (ULK3 (human)) | kinase still bound, per cent of control (HIPK2 (human)) | kinase still bound, per cent of control (EPHB2 (human)) | kinase still bound, per cent of control (SIK2 (human)) | kinase still bound, per cent of control (TLK2 (human)) | kinase still bound, per cent of control (TLK1 (human)) | kinase still bound, per cent of control (MAP3K1 (human)) | kinase still bound, per cent of control (TRPM6 (human)) | kinase still bound, per cent of control (PIK3C2G (human)) | kinase still bound, per cent of control (CDC42BPB (human)) | kinase still bound, per cent of control (RPS6KB1 (human)) | kinase still bound, per cent of control (PKN1 (human)) | kinase still bound, per cent of control (MAP3K10 (human)) | other results
C=CC(=O)Nc1ccc(C(=O)c2sc(Nc3ccc(N4CCN(C)CC4)cc3OC)nc2N)cc1 | 95% | 100% | 100% | 79% | 86% | 88% | 1.5% | 35% | 40% | 100% | 72% | 83% | 69% | 100% | 35% | 100% | 100% | 100% | 97% | 91% | kinase still bound, per cent of control (PAK6 (human)): 40%; kinase still bound, per cent of control (STK32B (human)): 71%; kinase still bound, per cent of control (LRRK2 (human)): 5.2%; kinase still bound, per cent of control [2]: 100%; kinase still bound, per cent of control (MAP3K2 (human)): 68%; kinase still bound, per cent of control (STK4 (human)): 100%; kinase still bound, per cent of control (DYRK2 (human)): 4.2%; kinase still bound, per cent of control (PIM1 (human)): 90%; kinase still bound, per cent of control (STK11 (human)): 86%; kinase still bound, per cent of control (PKN3 (M.tuberculosis)): 100%; kinase still bound, per cent of control (DCLK3 (human)): 3.8%; kinase still bound, per cent of control (CRK2 (P.falciparum)): 92%; kinase still bound, per cent of control (EPHA3 (human)): 80%; kinase still bound, per cent of control (TYRO3 (human)): 100%; kinase still bound, per cent of control (GRK1 (human)): 100%; kinase still bound, per cent of control (ABL2 (human)): 100%; kinase still bound, per cent of control (RPS6KA1 KD2 (human)): 0.3%; kinase still bound, per cent of control (EPHA7 (human)): 95%; kinase still bound, per cent of control (DSTYK (human)): 4.7%; kinase still bound, per cent of control (AKT3 (human)): 73%
N#Cc1cc(-c2ccnc(Nc3ccc(-n4cnc(-c5cccnc5)n4)cc3)n2)cc(N2CCOCC2)c1 | 100% | 100% | 70% | 63% | 100% | 72% | 53% | 6% | 6.2% | 89% | 33% | 65% | 39% | 100% | 100% | 100% | 61% | 52% | 48% | 72% | kinase still bound, per cent of control (PAK6 (human)): 58%; kinase still bound, per cent of control (STK32B (human)): 100%; kinase still bound, per cent of control (LRRK2 (human)): 94%; kinase still bound, per cent of control [2]: 100%; kinase still bound, per cent of control (MAP3K2 (human)): 31%; kinase still bound, per cent of control (STK4 (human)): 89%; kinase still bound, per cent of control (DYRK2 (human)): 39%; kinase still bound, per cent of control (PIM1 (human)): 78%; kinase still bound, per cent of control (STK11 (human)): 11%; kinase still bound, per cent of control (PKN3 (M.tuberculosis)): 6.3%; kinase still bound, per cent of control (DCLK3 (human)): 100%; kinase still bound, per cent of control (CRK2 (P.falciparum)): 100%; kinase still bound, per cent of control (EPHA3 (human)): 58%; kinase still bound, per cent of control (TYRO3 (human)): 87%; kinase still bound, per cent of control (GRK1 (human)): 100%; kinase still bound, per cent of control (ABL2 (human)): 67%; kinase still bound, per cent of control (RPS6KA1 KD2 (human)): 77%; kinase still bound, per cent of control (EPHA7 (human)): 85%; kinase still bound, per cent of control (DSTYK (human)): 76%; kinase still bound, per cent of control (AKT3 (human)): 100%
COc1cc2c(Nc3ccc(NC(=O)c4ccccc4)cc3)ncnc2cc1OCCCN1CCOCC1 | 100% | 85% | 100% | 35% | 81% | 85% | 100% | 7.3% | 50% | 100% | 63% | 100% | 78% | 92% | 98% | 14% | 100% | 7.4% | 100% | 86% | kinase still bound, per cent of control (PAK6 (human)): 95%; kinase still bound, per cent of control (STK32B (human)): 100%; kinase still bound, per cent of control (LRRK2 (human)): 73%; kinase still bound, per cent of control [2]: 100%; kinase still bound, per cent of control (MAP3K2 (human)): 28%; kinase still bound, per cent of control (STK4 (human)): 78%; kinase still bound, per cent of control (DYRK2 (human)): 91%; kinase still bound, per cent of control (PIM1 (human)): 100%; kinase still bound, per cent of control (STK11 (human)): 100%; kinase still bound, per cent of control (PKN3 (M.tuberculosis)): 37%; kinase still bound, per cent of control (DCLK3 (human)): 96%; kinase still bound, per cent of control (CRK2 (P.falciparum)): 100%; kinase still bound, per cent of control (EPHA3 (human)): 60%; kinase still bound, per cent of control (TYRO3 (human)): 60%; kinase still bound, per cent of control (GRK1 (human)): 100%; kinase still bound, per cent of control (ABL2 (human)): 82%; kinase still bound, per cent of control (RPS6KA1 KD2 (human)): 72%; kinase still bound, per cent of control (EPHA7 (human)): 84%; kinase still bound, per cent of control (DSTYK (human)): 34%; kinase still bound, per cent of control (AKT3 (human)): 100%
